Values joined by “and” are separate entries in the source; they are usually repeats but may differ in a detail not shown here. Identical values can stand only once. Toxic doses and inconclusive results are not listed. Cut-off read from the data, not from the text of the source: active = T/C of 150% or more; inactive = T/C below 125%.
Test system: L1210 leukemia ip in BDF1 mice, survival T/C
Test: NCI In Vivo Anticancer Drug Screen. Data for tumor model L1210 Leukemia (intraperitoneal) in B6D2F1 (BDF1) mice
Details: endpoint: mean survival time, higher = longer survival
Summary of the method: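 Transplantable tumor model; survival measured in treated vs vehicle control mice. Value = treated/control.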

[1] = dose: 12.5 mg/kg/injection, schedule: Q01DX009 (ip), vehicle: saline
[2] = dose: 25.0 mg/kg/injection, schedule: Q01DX009 (ip), vehicle: saline
[3] = dose: 100.0 mg/kg/injection, schedule: Q04DX003 (ip), vehicle: Klucel (hydroxypropylcellulose) (HPC)
[4] = dose: 200.0 mg/kg/injection, schedule: Q04DX003 (ip), vehicle: Klucel (hydroxypropylcellulose) (HPC)
[5] = dose: 400.0 mg/kg/injection, schedule: Q04DX003 (ip), vehicle: Klucel (hydroxypropylcellulose) (HPC)
[6] = dose: 100.0 mg/kg/injection, schedule: Q04DX003 (ip), vehicle: saline with Tween-80
[7] = dose: 200.0 mg/kg/injection, schedule: Q04DX003 (ip), vehicle: saline with Tween-80
[8] = dose: 400.0 mg/kg/injection, schedule: Q04DX003 (ip), vehicle: saline with Tween-80
[9] = dose: 100.0 mg/kg/injection, schedule: Q01DX001 (ip), vehicle: carboxymethylcellulose (CMC)

Measured: T/C

CCCCCCCCCCCCCCCCCC[N+](C)(C)C (tested in a mixture with another compound)
inactive: dose: 0.2 mg/kg/injection, schedule: Q01DX015 (ip), vehicle: saline 104 % of control | dose: 0.5 mg/kg/injection, schedule: Q01DX015 (ip), vehicle: saline 98 % of control | dose: 1.0 mg/kg/injection, schedule: Q01DX009 (ip), vehicle: saline 108 % of control | dose: 1.0 mg/kg/injection, schedule: Q01DX015 (ip), vehicle: saline 104 % of control | dose: 2.0 mg/kg/injection, schedule: Q01DX009 (ip), vehicle: saline 100 % of control | dose: 2.0 mg/kg/injection, schedule: Q01DX015 (ip), vehicle: carboxymethylcellulose (CMC) 96 % of control | dose: 2.0 mg/kg/injection, schedule: Q01DX015 (ip), vehicle: saline 94 % of control and 103 % of control | dose: 3.0 mg/kg/injection, schedule: Q04DX003 (ip), vehicle: saline sonified 93 % of control | dose: 4.0 mg/kg/injection, schedule: Q01DX009 (ip), vehicle: saline 108 % of control | dose: 4.0 mg/kg/injection, schedule: Q01DX015 (ip), vehicle: carboxymethylcellulose (CMC) 93 % of control | dose: 4.0 mg/kg/injection, schedule: Q01DX015 (ip), vehicle: saline 96 % of control | dose: 5.0 mg/kg/injection, schedule: Q01DX015 (ip), vehicle: saline 103 % of control | dose: 6.0 mg/kg/injection, schedule: Q04DX003 (ip), vehicle: saline sonified 103 % of control | dose: 8.0 mg/kg/injection, schedule: Q01DX009 (ip), vehicle: saline 97 % of control | dose: 8.0 mg/kg/injection, schedule: Q01DX015 (ip), vehicle: saline 94 % of control | dose: 10.0 mg/kg/injection, schedule: Q01DX015 (ip), vehicle: saline 91 % of control | [1] 101 % of control | dose: 16.0 mg/kg/injection, schedule: Q04DX003 (ip), vehicle: saline 105 % of control | dose: 25.0 mg/kg/injection, schedule: Q01DX001 (ip), vehicle: saline 117 % of control | [2] 95 % of control | dose: 25.0 mg/kg/injection, schedule: Q04DX003 (ip), vehicle: saline 96 % of control | dose: 50.0 mg/kg/injection, schedule: Q04DX003 (ip), vehicle: saline 87 % of control

Cc1cc2ccccc2cc1C
inactive: dose: 25.0 mg/kg/injection, schedule: Q04DX002 (ip), vehicle: other 102 % of control | dose: 25.0 mg/kg/injection, schedule: Q04DX002 (ip), vehicle: saline with Tween-80 119 % of control | dose: 50.0 mg/kg/injection, schedule: Q04DX002 (ip), vehicle: saline with Tween-80 101 % of control | dose: 100.0 mg/kg/injection, schedule: Q04DX002 (ip), vehicle: other 94 % of control | dose: 100.0 mg/kg/injection, schedule: Q04DX002 (ip), vehicle: saline with Tween-80 111 % of control

Oc1ccccc1C=NCCCN1CC1.[Ni+2].[O-]c1ccccc1C=NCCCN1CC1
inactive: dose: 100.0 mg/kg/injection, schedule: Q01DX001 (ip), vehicle: Klucel (hydroxypropylcellulose) (HPC) 114 % of control | dose: 200.0 mg/kg/injection, schedule: Q01DX001 (ip), vehicle: Klucel (hydroxypropylcellulose) (HPC) 87 % of control | dose: 400.0 mg/kg/injection, schedule: Q01DX001 (ip), vehicle: Klucel (hydroxypropylcellulose) (HPC) 104 % of control

COc1ccc(C2(C#N)CCCCC2)cc1
inactive: dose: 100.0 mg/kg/injection, schedule: Q01DX009 (ip), vehicle: Klucel (hydroxypropylcellulose) (HPC) 109 % of control | [3] 97 % of control | dose: 200.0 mg/kg/injection, schedule: Q01DX009 (ip), vehicle: Klucel (hydroxypropylcellulose) (HPC) 98 % of control | [4] 100 % of control | dose: 400.0 mg/kg/injection, schedule: Q01DX009 (ip), vehicle: Klucel (hydroxypropylcellulose) (HPC) 94 % of control | [5] 101 % of control

O=C(O)CCN(Cc1ccccc1)Cc1ccccc1
inactive: dose: 100.0 mg/kg/injection, schedule: Q01DX009 (ip), vehicle: saline with Tween-80 101 % of control | [6] 108 % of control | dose: 200.0 mg/kg/injection, schedule: Q01DX009 (ip), vehicle: saline with Tween-80 98 % of control | [7] 88 % of control | dose: 400.0 mg/kg/injection, schedule: Q01DX009 (ip), vehicle: saline with Tween-80 98 % of control | [8] 104 % of control

CC1(C)N=C(N)N=C(N)N1c1cccc(OCCOc2ccc([N+](=O)[O-])cc2)c1
inactive: dose: 100.0 mg/kg/injection, schedule: Q01DX001 (ip), vehicle: saline 101 % of control | dose: 200.0 mg/kg/injection, schedule: Q01DX001 (ip), vehicle: saline 95 % of control

CC[NH-].CC[NH-].[Br][Pt+2][Br]
inactive: dose: 100.0 mg/kg/injection, schedule: Q04DX003 (ip), vehicle: other 122 % of control | dose: 200.0 mg/kg/injection, schedule: Q04DX003 (ip), vehicle: other 105 % of control

CC1(c2ccc(Cl)cc2)NC(=O)N(CN2CCCCC2)C1=O (stereo unspecified)
inactive: dose: 12.5 mg/kg/injection, schedule: Q01DX009 (ip), vehicle: saline sonified 102 % of control | dose: 25.0 mg/kg/injection, schedule: Q01DX009 (ip), vehicle: saline sonified 96 % of control | dose: 50.0 mg/kg/injection, schedule: Q01DX009 (ip), vehicle: saline sonified 104 % of control

C/C=C/C[P+](CC)(c1ccccc1)c1ccccc1
inactive: dose: 3.13 mg/kg/injection, schedule: Q01DX009 (ip), vehicle: saline 89 % of control

O=c1oc2c(CN3CCCC3)c(O)ccc2c2c1CCCC2
inactive: [9] 91 % of control | dose: 200.0 mg/kg/injection, schedule: Q01DX001 (ip), vehicle: carboxymethylcellulose (CMC) 98 % of control

CCOC(=O)C(=CC(CC)C(=O)OCC)C(=O)OCC (stereo unspecified) (tested in a mixture with another compound)
inactive: dose: 100.0 mg/kg/injection, schedule: Q04DX003 (ip), vehicle: saline 93 % of control | dose: 200.0 mg/kg/injection, schedule: Q04DX003 (ip), vehicle: saline 93 % of control | dose: 400.0 mg/kg/injection, schedule: Q04DX003 (ip), vehicle: saline 89 % of control

CC(C)NC(=O)Oc1ccccc1
inactive: dose: 100.0 mg/kg/injection, schedule: Q04DX002 (ip), vehicle: Klucel (hydroxypropylcellulose) (HPC) 93 % of control | dose: 200.0 mg/kg/injection, schedule: Q04DX002 (ip), vehicle: Klucel (hydroxypropylcellulose) (HPC) 110 % of control | dose: 400.0 mg/kg/injection, schedule: Q04DX002 (ip), vehicle: Klucel (hydroxypropylcellulose) (HPC) 96 % of control

NC1CCCCCCC1O (stereo unspecified)
inactive: dose: 5.0 mg/kg/injection, schedule: Q01DX009 (ip), vehicle: saline with Tween-80 105 % of control | dose: 10.0 mg/kg/injection, schedule: Q01DX009 (ip), vehicle: saline with Tween-80 94 % of control | dose: 20.0 mg/kg/injection, schedule: Q01DX009 (ip), vehicle: saline with Tween-80 100 % of control

O=C1CCCC(=S)N1
inactive: dose: 50.0 mg/kg/injection, schedule: Q01DX001 (ip), vehicle: carboxymethylcellulose (CMC) 113 % of control | [9] 106 % of control

c1cnc2c3c(ccc2c1)CN(C1CCCCC1)CO3
inactive: dose: 100.0 mg/kg/injection, schedule: Q04DX003 (ip), vehicle: saline sonified 94 % of control | dose: 200.0 mg/kg/injection, schedule: Q04DX003 (ip), vehicle: saline sonified 91 % of control

O=c1oc2ccc(Cl)cc2c(OCCO)c1Cl
inactive: [6] 94 % of control | [7] 96 % of control | [8] 86 % of control

CC(=O)N1CCN(C(C)=O)c2ccccc21
inactive: [3] 106 % of control | [4] 103 % of control | [5] 106 % of control

COc1cc(/C=C/C(=O)O)cc(Br)c1O
inactive: [3] 104 % of control | [4] 101 % of control | [5] 103 % of control

O=C1C(Br)CS(=O)(=O)CC1Br (stereo unspecified)
inactive: dose: 6.25 mg/kg/injection, schedule: Q01DX009 (ip), vehicle: saline 96 % of control | dose: 8.75 mg/kg/injection, schedule: Q01DX009 (ip), vehicle: saline 106 % of control | [1] 86 % of control | dose: 12.5 mg/kg/injection, schedule: Q04DX003 (ip), vehicle: Klucel (hydroxypropylcellulose) (HPC) 96 % of control | dose: 15.0 mg/kg/injection, schedule: Q01DX001 (ip), vehicle: carboxymethylcellulose (CMC) 102 % of control | dose: 17.5 mg/kg/injection, schedule: Q01DX009 (ip), vehicle: saline 98 % of control | [2] 91 % of control | dose: 25.0 mg/kg/injection, schedule: Q04DX003 (ip), vehicle: Klucel (hydroxypropylcellulose) (HPC) 94 % of control | dose: 30.0 mg/kg/injection, schedule: Q01DX001 (ip), vehicle: carboxymethylcellulose (CMC) 106 % of control

COc1cc(Oc2c(OC)cc(NC(C)=O)cc2OC)cc(OC)c1OC
inactive: [6] 94 % of control | [7] 97 % of control | [8] 95 % of control
